From ChEMBL document CHEMBL1201862, “PubChem BioAssay data set” (2004)
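Each compound was tested at five concentrations against cells in 96-well plates for 48 hours. GI50: concentration for 50% inhibition of growth.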 Calls of active or inactive are those of the source. Rule as the data show it: active = GI50 up to about 1.1 µM and inactive = higher.

What was measured:
Assay in all cases: DTP human tumour cell line panel, 48 h
RPMI-8226 = test system: RPMI-8226
NCI-H226 = test system: NCI-H226
OVCAR-4 = test system: OVCAR-4
UACC-257 = test system: UACC-257
MDA-MB-435 = test system: MDA-MB-435
HL-60 = test system: HL-60
COLO 205 = test system: COLO 205
RXF 393 = test system: RXF 393
SW-620 = test system: SW-620
NCI-H522 = test system: NCI-H522
OVCAR-8 = test system: OVCAR-8
SF-539 = test system: SF-539
NCI-H23 = test system: NCI-H23
SK-MEL-2 = test system: SK-MEL-2
A498 = test system: A498
OVCAR-3 = test system: OVCAR-3
SN12C = test system: SN12C
LOX IMVI = test system: LOX IMVI
A549 = test system: A549
CCRF-CEM = test system: CCRF-CEM

SMILES	GI50 (RPMI-8226)	GI50 (NCI-H226)	GI50 (OVCAR-4)	GI50 (UACC-257)	GI50 (MDA-MB-435)	GI50 (HL-60)	GI50 (COLO 205)	GI50 (RXF 393)	GI50 (SW-620)	GI50 (NCI-H522)	GI50 (OVCAR-8)	GI50 (SF-539)	GI50 (NCI-H23)	GI50 (SK-MEL-2)	GI50 (A498)	GI50 (OVCAR-3)	GI50 (SN12C)	GI50 (LOX IMVI)	GI50 (A549)	GI50 (CCRF-CEM)
COc1ccc2nc3cc([N+](=O)[O-])ccc3c(NNc3ccc([N+](=O)[O-])cc3)c2c1	18.7 µM (inactive)	2.36 µM (inactive)	57.4 µM (inactive)	1.83 µM (inactive)	31.6 µM (inactive)	20.3 µM (inactive)	17.2 µM (inactive)	44.1 µM (inactive)	9.02 µM (inactive)	29.3 µM (inactive)	> 58.1 µM (inactive)	45.6 µM (inactive)	28.4 µM (inactive)	27.6 µM (inactive)	0.0951 µM (active)	22.4 µM (inactive)	31.5 µM (inactive)	61.1 µM (inactive)	7.18 µM (inactive)	30.8 µM (inactive)
Clc1ccc(Cc2nc3cc4ccccc4cc3[nH]2)cc1Cl	31.3 µM (inactive)	25.2 µM (inactive)	13 µM (inactive)	18.1 µM (inactive)	15 µM (inactive)	16.3 µM (inactive)	18.5 µM (inactive)	16.4 µM (inactive)	17.4 µM (inactive)	12.7 µM (inactive)	20.1 µM (inactive)	15.5 µM (inactive)	27.3 µM (inactive)	17.1 µM (inactive)	13.6 µM (inactive)	22.8 µM (inactive)	24 µM (inactive)	14.5 µM (inactive)	16.4 µM (inactive)	37.9 µM (inactive)
NS(=O)(=O)c1ccc(NC(=O)N/N=C/c2ccccc2O)cc1	> 100 µM (inactive)	66.1 µM (inactive)	> 100 µM (inactive)	58.6 µM (inactive)	16.4 µM (inactive)	27.2 µM (inactive)	35.5 µM (inactive)	> 100 µM (inactive)	74.3 µM (inactive)	22.4 µM (inactive)	45.1 µM (inactive)	41.9 µM (inactive)	80.7 µM (inactive)	42 µM (inactive)	> 100 µM (inactive)	42 µM (inactive)	85.3 µM (inactive)	47.4 µM (inactive)	> 100 µM (inactive)	36.1 µM (inactive)
O=C(CSc1ncccn1)N/N=C/c1ccccc1OCc1ccccc1	19.5 µM (inactive)	20.6 µM (inactive)	22.8 µM (inactive)	21 µM (inactive)	4.33 µM (inactive)	21.1 µM (inactive)	19.2 µM (inactive)	21.9 µM (inactive)	29.6 µM (inactive)	28.4 µM (inactive)	28.7 µM (inactive)	20.8 µM (inactive)	32.3 µM (inactive)	21.3 µM (inactive)	22.1 µM (inactive)	16.4 µM (inactive)	27.2 µM (inactive)	17.4 µM (inactive)	71.8 µM (inactive)	15.3 µM (inactive)
O=C1C(c2cnc3ccccc3n2)=C(O)c2ccccc21	> 61.1 µM (inactive)	> 100 µM (inactive)	> 53.6 µM (inactive)	> 71 µM (inactive)	4.19 µM (inactive)	> 60.4 µM (inactive)	43.2 µM (inactive)	9.71 µM (inactive)	> 56.2 µM (inactive)	> 72.9 µM (inactive)	> 75.7 µM (inactive)	> 100 µM (inactive)	> 100 µM (inactive)	> 100 µM (inactive)	> 100 µM (inactive)	> 100 µM (inactive)	> 77.3 µM (inactive)	47.3 µM (inactive)	> 81.8 µM (inactive)	> 100 µM (inactive)
CC1=C/C(=N\N(C)C)C(C(O)(C(F)(F)F)C(F)(F)F)C(C)(C)C1 (stereo not given)	46.8 µM (inactive)	> 100 µM (inactive)	> 100 µM (inactive)	> 100 µM (inactive)	> 100 µM (inactive)	> 100 µM (inactive)	> 100 µM (inactive)	> 100 µM (inactive)	> 100 µM (inactive)	> 100 µM (inactive)	> 100 µM (inactive)	> 100 µM (inactive)	69.7 µM (inactive)	> 100 µM (inactive)	> 100 µM (inactive)	26.4 µM (inactive)	> 100 µM (inactive)	> 100 µM (inactive)	> 100 µM (inactive)	> 100 µM (inactive)
CC1=NN(c2nc(N)nc(COCc3nc(N)nc(N4N=C(C)CC4(C)C)n3)n2)C(C)(C)C1	> 100 µM (inactive)	> 100 µM (inactive)	> 100 µM (inactive)	> 100 µM (inactive)	> 100 µM (inactive)	> 100 µM (inactive)	> 100 µM (inactive)	> 100 µM (inactive)	> 100 µM (inactive)	> 100 µM (inactive)	> 100 µM (inactive)	> 100 µM (inactive)	> 100 µM (inactive)	> 100 µM (inactive)	> 100 µM (inactive)	> 100 µM (inactive)	> 100 µM (inactive)	> 100 µM (inactive)	> 100 µM (inactive)	> 100 µM (inactive)
COc1ccc(-c2c(N)n(-c3cc(OC)cc(OC)c3)c(=O)c3cc([N+](=O)[O-])ccc23)cc1	2.76 µM (inactive)	> 36.1 µM (inactive)	18.2 µM (inactive)	> 90.4 µM (inactive)	20.4 µM (inactive)	2.47 µM (inactive)	> 27.3 µM (inactive)	11.1 µM (inactive)	> 87.7 µM (inactive)	5.19 µM (inactive)	> 100 µM (inactive)	> 78.3 µM (inactive)	> 92 µM (inactive)	> 100 µM (inactive)	28 µM (inactive)	24.4 µM (inactive)	> 100 µM (inactive)	24.7 µM (inactive)	> 100 µM (inactive)	> 77.8 µM (inactive)
Clc1ccc(Nc2nnc(CNc3ccc(-c4nnc(Nc5ccc(Cl)cc5)o4)cc3)o2)cc1	9.42 µM (inactive)	20.9 µM (inactive)	17.4 µM (inactive)	20.3 µM (inactive)	12.9 µM (inactive)	2.63 µM (inactive)	19.8 µM (inactive)	18.5 µM (inactive)	20.9 µM (inactive)	16 µM (inactive)	8.87 µM (inactive)	18.6 µM (inactive)	15.9 µM (inactive)	18.3 µM (inactive)	14.9 µM (inactive)	11.2 µM (inactive)	16 µM (inactive)	6.95 µM (inactive)	13.6 µM (inactive)	7.13 µM (inactive)
COC1/C=C\C=C(/C)C(=O)NC2=CC(=O)C(O)=C(CC(C)CC(OC)C(O)C(C)/C=C(\C)C1OC(N)=O)C2=O (stereo not given)	0.0789 µM (active)	> 100 µM (inactive)	10.3 µM (inactive)	0.384 µM (active)	0.0537 µM (active)	0.169 µM (active)	0.0422 µM (active)	0.136 µM (active)	0.0158 µM (active)	0.0596 µM (active)	0.351 µM (active)	0.984 µM (active)	0.482 µM (active)	0.893 µM (active)	38.5 µM (inactive)	0.325 µM (active)	0.0446 µM (active)	0.406 µM (active)	4.79 µM (inactive)	0.0282 µM (active)
